Assay results published in US20080318939A1, “METHODS FOR TREATING OPHTHALMIC DISORDERS” (priority 2007, published 2008).

Columns and labels:
leukemia cells = assay: inhibition of proliferation of leukemia cells; assay type: cell-based; conditions: cells associated with a cell proliferation condition
normal bone marrow cells = assay: inhibition of proliferation of normal bone marrow cells; assay type: cell-based; conditions: specificity
[1] = permeation of the blood-brain barrier

| SMILES | inhibition of leukemia cells (leukemia cells) | inhibition of normal bone marrow cells (normal bone marrow cells) | blood-brain barrier permeation [1] |
| --- | --- | --- | --- |
| CN1CCCC1CCNC(=O)c1cn2c3c(c(N4CCC(c5cnccn5)C4)c(F)cc3c1=O)Oc1cc3ccccc3cc1-2 (stereo not drawn) [TA1-1A] | inhibits leukemia cells | without inhibiting normal bone marrow cells | – |
| CC(=O)N1CCN(c2nc3c(cc2F)c(=O)c(C(=O)NCCN2CCCC2)c2n(C)c4ccccc4n32)CC1 [TA4-1 A] | – | – | significantly permeates the blood-brain barrier |
